Assay results taken from patent publication US8431556B2, “C-21-keto lupane derivatives preparation and use thereof” (Vertex Pharmaceuticals Incorporated, priority 2008, dated 2013).

Each compound was assayed on HIV-1 (HIVIIIB) (assay: HIV-1 replication in MT2 cell line with and without 30% human serum (viral RT activity in supernatant)). Conditions: Human immunodeficiency virus 1, MT2, MT-2 cells, with 30% human serum, average IC50 if tested more than once, read-out: MT-2 (HIVIIIB) with 30% HS IC50 range.
Assay type: cell-based
Method: HIV-1 Replication in MT2 cell line with and without 30% human serum: The cells are infected at a Multiciplicity of Infection (MOI) of 0.5 for 3 h and then washed twice with complete media to remove residual virus. Cells are then resuspended at 0.5×10^6/ml in complete medium (RPMI, 10% FBS, 1% sodium pyruvate), and seeded into 96-well plates (6.25×10^4/well). The cells are cultured in the presence or absence of various concentrations of test compounds in serial dilutions for 3 days at 37° C. The test compounds are serially diluted in complete medium supplemented or not with 30% human serum. After 3 days, 100 μL of cultured medium with cells are replaced with 120 μL of freshly diluted test compounds in complete medium containing or not 30% Human serum. The level of HIV-1 replication is determined at days 5 after infection by the presence of viral RT activity in harvested supernatant fluid. The IC50 and IC90 values for the virus replication are determined by using GRAPHPAD PRISM software.
The IC50 of the compounds tested in accordance with the HIV replication activity assay MT-2 (HIVIIIB) are represented in Table 4 (without HS) and Table 5 (with 30% HS)

SMILES	IC50
CC(C)C1=C2[C@H]3CC[C@@H]4[C@@]5(C)CC[C@H](OC(=O)CC(C)(C)C(=O)O)C(C)(C)[C@@H]5CC[C@@]4(C)[C@]3(C)CC[C@@]2(C(=O)NCC(F)(F)F)CC1=O [9-71, 3β-O-(3′,3′-Dimethylsuccinyl)-21-oxolup-18-en-28-oic acid N-(2,2,2-trifluoro-ethyl)-acetamide]	< 199 nM
CC(C)C1=C2[C@H]3CC[C@@H]4[C@@]5(C)CC[C@H](OC(=O)CC(C)(C)C(=O)O)C(C)(C)[C@@H]5CC[C@@]4(C)[C@]3(C)CC[C@@]2(C(=O)N2CCC(F)(F)CC2)CC1=O [9-94, 3β-O-(3′,3′-Dimethylsuccinyl)-21-oxolup-18-en-28-oic acid N-4,4-difluoro-piperidine acetamide]	< 199 nM
CC(C)C1=C2C3CCC4[C@@]5(C)CC[C@H](OC(=O)CC(C)(C)C(=O)O)C(C)(C)C5CC[C@@]4(C)[C@]3(C)CC[C@@]2(C(=O)N2Cc3ccccc3C2)CC1=O (stereo partly drawn) [9-92, 3β-O-(3′,3′-Dimethylsuccinyl)-21-oxolup-18-en-28-oic acid N-(1,3-dihydro-isoindol-2-yl)-acetamide]	< 199 nM
Cc1ccnc(NC(=O)[C@@]23CC[C@]4(C)[C@H](CC[C@@H]5[C@@]6(C)CC[C@H](OC(=O)CC(C)(C)C(=O)O)C(C)(C)[C@@H]6CC[C@]54C)C2=C(C(C)C)C(=O)C3)n1 [9-56, 3β-O-(3′,3′-Dimethylsuccinyl)-21-oxolup-18-en-28-oic acid N-4-methyl-pyrimidin-2-yl-acetamide]	< 199 nM
CC(C)C1=C2[C@H]3CC[C@@H]4[C@@]5(C)CC[C@H](OC(=O)CC(C)(C)C(=O)O)C(C)(C)[C@@H]5CC[C@@]4(C)[C@]3(C)CC[C@@]2(C(=O)Nc2ccccn2)CC1=O [9-25, 3β-O-(3′,3′-Dimethylsuccinyl)-21-oxolup-18-en-28-oic acid N-pyridin-2-yl-acetamide]	< 199 nM
CC(C)C1=C2C3CCC4[C@@]5(C)CC[C@H](OC(=O)CC(C)(C)C(=O)O)C(C)(C)C5CC[C@@]4(C)[C@]3(C)CC[C@@]2(C(=O)NC[C@H]2CCCN2C)CC1=O (stereo partly drawn) [9-83, 3β-O-(3′,3′-Dimethylsuccinyl)-21-oxolup-18-en-28-oic acid N-((R)-1-methyl-pyrrolidin-2-ylmethyl)-acetamide]	< 199 nM
CC(C)NC(=O)N1CCN(C(=O)[C@@]23CC[C@]4(C)[C@H](CC[C@@H]5[C@@]6(C)CC[C@H](OC(=O)CC(C)(C)C(=O)O)C(C)(C)[C@@H]6CC[C@]54C)C2=C(C(C)C)C(=O)C3)CC1 [9-39, 3β-O-(3′,3′-Dimethylsuccinyl)-21-oxolup-18-en-28-oic acid N-(4-N′-isopropylureido-1-piperazine)-acetamide]	< 199 nM
CC(C)C1=C2[C@H]3CC[C@@H]4[C@@]5(C)CC[C@H](OC(=O)CC(C)(C)C(=O)O)C(C)(C)[C@@H]5CC[C@@]4(C)[C@]3(C)CC[C@@]2(C(=O)Nc2ccccc2C(F)(F)F)CC1=O [9-65, 3β-O-(3′,3′-Dimethylsuccinyl)-21-oxolup-18-en-28-oic acid N-2-trifluoromethyl-phen-1-yl acetamide]	< 199 nM
Cc1ncncc1NC(=O)[C@@]12CC[C@]3(C)[C@H](CC[C@@H]4[C@@]5(C)CC[C@H](OC(=O)CC(C)(C)C(=O)O)C(C)(C)[C@@H]5CC[C@]43C)C1=C(C(C)C)C(=O)C2 [9-55, 3β-O-(3′,3′-Dimethylsuccinyl)-21-oxolup-18-en-28-oic acid N-4-methyl-pyrimidin-5-yl-acetamide]	< 199 nM
CC(C)C1=C2C3CCC4[C@@]5(C)CC[C@H](OC(=O)CC(C)(C)C(=O)O)C(C)(C)C5CC[C@@]4(C)[C@]3(C)CC[C@@]2(C(=O)NC[C@@H]2CCCN2C(=O)OC(C)(C)C)CC1=O (stereo partly drawn) [9-80, 3β-O-(3′,3′-Dimethylsuccinyl)-21-oxolup-18-en-28-oic acid N-(S)-2-acetylaminomethyl-pyrrolidine-1-carboxylic acid tert-butyl ester]	< 199 nM
CC(C)C1=C2C3CCC4[C@@]5(C)CC[C@H](OC(=O)CC(C)(C)C(=O)O)C(C)(C)C5CC[C@@]4(C)[C@]3(C)CC[C@@]2(C(=O)Nc2ccc(F)cc2)CC1=O (stereo partly drawn) [9-88, 3β-O-(3′,3′-Dimethylsuccinyl)-21-oxolup-18-en-28-oic acid N-4-fluoro-phen-1-yl acetamide]	< 199 nM
CC(C)C1=C2C3CCC4[C@@]5(C)CC[C@H](OC(=O)CC(C)(C)C(=O)O)C(C)(C)C5CC[C@@]4(C)[C@]3(C)CC[C@@]2(C(=O)NC[C@H]2CCCN2C(=O)OC(C)(C)C)CC1=O (stereo partly drawn) [9-79, 3β-O-(3′,3′-Dimethylsuccinyl)-21-oxolup-18-en-28-oic acid N-(R)-2-acetylaminomethyl-pyrrolidine-1-carboxylic acid tert-butyl ester]	< 199 nM
CC(C)C1=C2C3CCC4[C@@]5(C)CC[C@H](OC(=O)CC(C)(C)C(=O)O)C(C)(C)C5CC[C@@]4(C)[C@]3(C)CC[C@@]2(C(=O)N(C)C(C)(C)C)CC1=O (stereo partly drawn) [9-78, 3β-O-(3′,3′-Dimethylsuccinyl)-21-oxolup-18-en-28-oic acid N-tert-butyl-N-methyl-acetamide]	< 199 nM
CC(C)C1=C2C3CCC4[C@@]5(C)CC[C@H](OC(=O)CC(C)(C)C(=O)O)C(C)(C)C5CC[C@@]4(C)[C@]3(C)CC[C@@]2(C(=O)Nc2nnn(C)n2)CC1=O (stereo partly drawn) [9-90, 3β-O-(3′,3′-Dimethylsuccinyl)-21-oxolup-18-en-28-oic acid N-(1-methyl-1H-tetrazol-3-yl)-acetamide]	< 199 nM
Cc1cccc(NC(=O)[C@@]23CC[C@]4(C)[C@H](CC[C@@H]5[C@@]6(C)CC[C@H](OC(=O)CC(C)(C)C(=O)O)C(C)(C)[C@@H]6CC[C@]54C)C2=C(C(C)C)C(=O)C3)c1 [9-48, 3β-O-(3′,3′-Dimethylsuccinyl)-21-oxolup-18-en-28-oic acid N-3-methyl-phen-1-yl acetamide]	< 199 nM
CC(C)C1=C2C3CCC4[C@@]5(C)CC[C@H](OC(=O)CC(C)(C)C(=O)O)C(C)(C)C5CC[C@@]4(C)[C@]3(C)CC[C@@]2(C(=O)NC[C@@H]2CCCN2)CC1=O (stereo partly drawn) [9-82, 3β-O-(3′,3′-Dimethylsuccinyl)-21-oxolup-18-en-28-oic acid N-((S)-1-pyrrolidin-2-ylmethyl)-acetamide]	< 199 nM
CC(C)OC(=O)NC1CCN(C(=O)[C@@]23CC[C@]4(C)[C@H](CC[C@@H]5[C@@]6(C)CC[C@H](OC(=O)CC(C)(C)C(=O)O)C(C)(C)[C@@H]6CC[C@]54C)C2=C(C(C)C)C(=O)C3)CC1 [9-68, 3β-O-(3′,3′-Dimethylsuccinyl)-21-oxolup-18-en-28-oic acid N-(4-aminocarboxylic acid isopropyl ester-1-piperidine)-acetamide]	< 199 nM
COC(=O)NCCNC(=O)[C@@]12CC[C@]3(C)[C@H](CC[C@@H]4[C@@]5(C)CC[C@H](OC(=O)CC(C)(C)C(=O)O)C(C)(C)[C@@H]5CC[C@]43C)C1=C(C(C)C)C(=O)C2 [9-24, 3β-O-(3′,3′-Dimethylsuccinyl)-21-oxolup-18-en-28-oic acid N-(2-acetylamino-ethyl)-carbamic acid methyl ester]	< 199 nM
CC(C)C1=C2[C@H]3CC[C@@H]4[C@@]5(C)CC[C@H](OC(=O)CC(C)(C)C(=O)O)C(C)(C)[C@@H]5CC[C@@]4(C)[C@]3(C)CC[C@@]2(C(=O)N2CCN(C(=O)OC(C)(C)C)CC2)CC1=O [9-27, 3β-O-(3′,3′-Dimethylsuccinyl)-21-oxolup-18-en-28-oic acid N-1-acetyl-piperazine-4-carboxylic acid tert-butyl ester]	< 199 nM
